According to patent US12304909B2, “Compounds and their use in therapy” (IMPERIAL COLLEGE INNOVATIONS LIMITED, priority 2018, dated 2025):
pEC50, pIC50: −log10 of the molar value.

Legend:
[1] = molecular target: T1, human NMT1 (HsNMT1) (Homo sapiens, UniProt P30419); assay: HsNMT1 IC50, fluorescence-based assay detecting CoA with CPM; assay type: biochemical
T1 sequence (P30419 1-496): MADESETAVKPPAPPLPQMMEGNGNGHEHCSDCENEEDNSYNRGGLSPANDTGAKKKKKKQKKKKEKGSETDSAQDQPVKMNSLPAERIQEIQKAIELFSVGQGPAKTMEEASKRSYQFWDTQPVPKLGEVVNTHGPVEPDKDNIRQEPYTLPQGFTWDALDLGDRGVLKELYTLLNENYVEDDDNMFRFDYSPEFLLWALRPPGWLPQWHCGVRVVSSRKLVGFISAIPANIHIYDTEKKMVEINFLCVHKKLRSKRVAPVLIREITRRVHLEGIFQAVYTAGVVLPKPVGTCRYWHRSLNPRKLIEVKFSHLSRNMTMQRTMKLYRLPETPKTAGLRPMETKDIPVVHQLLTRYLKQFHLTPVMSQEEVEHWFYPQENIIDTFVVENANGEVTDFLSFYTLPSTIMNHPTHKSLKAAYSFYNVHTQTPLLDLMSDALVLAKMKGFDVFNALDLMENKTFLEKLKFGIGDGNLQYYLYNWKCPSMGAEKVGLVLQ
Experimental: The IC50 values for human NMT1 (HsNMT1) of four Example compounds of the invention described above (Examples 1-4) and six comparative examples (Comparative Examples 1, 2, 3, 4, 5 and 6) were measured using a sensitive fluorescence-based assay based on detection of CoA by 7-diethylamino-3-(4-maleimido-phenyl)-4-methylcoumarin, as described in Goncalves, V., et al., Analytical Biochemistry, 2012, 421, 342-344 and Goncalves, V., et al., J. Med. Chem, 2012, 55, 3578.

[2] = Human liver microsomes half life; assay type: in vitro ADME; conditions: pH 7.4, read-out: Human liver microsomes t ½
Experimental: Example Compound 1 was tested for metabolic stability in an assay using human liver microsomes. Comparative Examples 2, 3, 4, 5 and 6 were also tested in the same assay. Compounds having good metabolic stability in the assay are expected to be especially useful as agents for preventing and/or treating cancer, by having a long half-life in human patients
Frozen human liver microsomes obtained from Corning, USA (cat #452117) were thawed and diluted with 100 mM of pH 7.4 phosphate buffer to give a 1 mg/ml solution. An NADPH regeneration system (NRS) was prepared as a solution containing 13 mM NADP, 33 mM glucose-6-phosphate, 33 mM MgCl2 and 4U/mL glucose-6-phosphate dehydrogenase in 100 mM of pH7.4 phosphate buffer. The test compound (4 mM) in DMSO was diluted with acetonitrile to provide a 100 μM sub-stock then further diluted with 100 mM of pH7.4 phosphate buffer to provide a 2 μM working solution. The liver microsome solution and NRS were incubated at 37° C. before use. To each well of the test plate was dispensed 60 μL of buffer, 50 μL of test compound solution and 10 μL of NRS. A reaction was initiated by addition of 40 μL of liver microsome solution. Wells were incubated for an appropriate time (0, 5, 10, 20, 30 and 60 min) then quenched with 300 μL of acetonitrile containing reference standards atenolol, propranolol, diclofenac, verapamil). All plates were centrifuged at 3500 rpm for 20 min at 15° C. to pellet the debris. 110 μL supernatant was diluted 110 μL water and quantitated using LC-MS/MS.
The results were used to calculate the % Remaining of the test compound at time point t=100×˜[(AUC at time point t)/(AUC at T=0)]. A linear regression curve was fitted to a plot of natural logarithm (In) of AUC against time. The T-half (min)=0.693/slope.

[3] = tested on: MRC5 cells; assay: Metabolic activity assay (MTS assay), MRC5; assay type: cell-based, human; conditions: Homo sapiens, MRC5, 72 h
Experimental: Example NMT inhibitors of the present invention were tested for activity in an in vitro metabolic activity assay using the human cell line MRC5. Comparative Examples 1, 2, 3, 4, 5 and 6 were also tested in the same metabolic activity assay. Compounds having activity in inhibiting metabolic activity in the assay are expected to be useful as agents for preventing and/or treating cancer, by virtue of being inhibitors of human NMT1 and/or NMT2.
MRC5 cells (obtained from Dr David Mann's group, Imperial College; cell type: fibroblasts cells which derive from normal lung tissue) were grown in DMEM media (supplemented with 10% FBS) and were seeded in a 96-well plate, 24 h prior to treatment. Cell suspensions were prepared by adjusting the cell density to the appropriate concentration (as stated in the Table 1 below) and 50 μL of the cell suspension was transferred to wells B-G in columns 2-11 of a 96-well plate.
100 μL of growth media (DMEM media) containing 0.2% DMSO was added to wells B-G in columns 2 and 11 as positive controls, and 100 μl of growth media containing Puromycin (3 μg/mL; final concentration in the plate 2 μg/mL) was added to wells B-G in column 3 as a negative control. Seven concentrations of NMT inhibitor stock solution were prepared for each Example (Example 1 and 2) and each Comparative Example (Comparative Examples 1, 2, 3, 4, 5 and 6) tested (same final percentage of DMSO, dilution factor=3 starting from 15 μM or 150 μM). 100 μL of inhibitor stock solution was added to wells B-G in columns 4-10 of a 96-well plate (final concentration of Example compound or Comparative Example compound in the plate starting from 10 μM or 100 μM; total volume in each well was 150 μL). The plate was incubated at 37° C. with 5% CO2 level.
After 72 h, 20 μL MTS reagent (Promega, prepared according to the supplier protocol) was added to each well of the 96-well plate. The plate was incubated at 37° C. for 2 h and the absorbance per well was measured at 490 nm with an EnVision plate reader. The average absorbance value of the negative control (Puromycin-treated cells) was subtracted from each value and the metabolic activity was calculated as a percentage relative to the positive control (DMSO-treated cells). EC50 values were calculated using GraphPad.

[4] = Mouse half life in vivo; conditions: plasma; mouse oral half-life; male CD-1 mice, 10 mg/kg po; read-out: Rat or mouse t ½ (mouse) (converted)
Experimental: Example Compound 1, and Comparative Examples 2 and 3 were tested for metabolic stability in male Sprague-Dawley rats. Comparative Example 5 was tested for metabolic stability in male CD-1 mice. Compounds having good metabolic stability in rats or mice are expected to be especially useful as agents for preventing and/or treating cancer, by having a long half-life in human patients.
Same as rat protocol except that CD-1 mice were dosed at 5 mg/kg iv and 10 mg/kg po.

Compound: Cc1nn(C)c(C)c1CCOc1cc(F)ccc1-c1ccc2c(c1)c(CN(C)C)nn2C [Comparative Example 5, 1-(5-(4-fluoro-2-(2-(1,3,5-trimethyl-1H-pyrazol-4-yl)ethoxy)phenyl)-1-methyl-1H-indazol-3-yl)-N,N-dimethylmethanamine]
- pIC50 [1]: 7.89
- half-life at 0.625 µM [2]: 7 min
- pEC50 [3]: 4.57
- half-life [4]: 42 min
